Source: patent US20230157296A1, “METHODS OF REDUCING FUSARIUM CONTAMINATION” (Taminco BV, priority 2020, published 2023)

Columns and labels:
Cavendish banana plants = test: Musa field soil injection of metam sodium at 30 cm and 60 cm: banana plant growth and stage; type: in vivo
Description: (§1) Metam Sodium Application. Metam sodium 510 SL (equivalent to 42% w/w) was applied to soil at the following doses: 0 liters per hectare (L/ha), 750 L/ha, 1500 L/ha, 2250 L/ha, 3000 L/ha.
(§2) Prior to injection, soil was prepared using a rototiller to break the soil structure from 0 cm to 80 cm deep, allowing for the smooth and even injection application by an injection machine. The soil was then leveled and made uniform, and the metam sodium was applied at two depths: 30 cm and 60 cm, using injection methods. The temperature was at a minimum of 10° C. and soil humidity was between 50 and 60% holding capacity, allowing the applied product to transform from metam sodium (liquid) to MITC (gas).
(§3) The application was made using an injection machine wherein the machine lowered shanks and began moving forward such that the shanks lowered to a depth of 60 cm and injectors applied the metam sodium into the soil. When the injection at 60 cm was complete, the process was repeated for the entire field at 30 cm. The treated soil in the field was then sealed using a packer roller (which was part of the injection machinery, located at the back end of the machine), after each application.
Plant Selection and Transplantation. Cavendish banana plants were used for this investigation. In order to avoid plants already contaminated by other soil, all plants were produced in vitro using art-recognized methods. Plants were transplanted into the field 14 days after the final soil reading was taken (21 days after treatment).
Data Gathering. Data were gathered at monthly intervals beginning three months after banana plants were transplanted. A total of three data collection sessions were conducted. Data including the number of leaves, plant height, and girth size were collected.

Foc TR4 chlamydospores = test: Efficacy of metam sodium on chlamydospores of Foc TR4 in vitro (colonies on PDA plates); type: cell-based, Fusarium oxysporum f. sp. Cubense Tropical Race 4
Description: Foc TR4 chlamydospores were extracted from infested soil and incubated with a dilution series of metam sodium for 5 min and 60 min at room temperature. Thereafter, the samples were diluted 10X to get reduction of the treatment and sufficient dilution of chlamydospores to avoid lack of resolution when grown on plate. Aliquots of 100 µl were plated on PDA plates in duplicate and incubated for 3 days at 25° C. Plates were photographed and scored.

[1] = tested on: F. oxysporum f. sp. cubense (Foc TR4); test: Panama disease analysis of soil samples after metam sodium field injection; type: in vivo, Fusarium oxysporum f. sp. Cubense Tropical Race 4
Description: as §1, §2, §3
Soil Analysis. Soil samples were obtained at 20, 40, and 60 cm before application and every 24 hours beginning 48 hours after application, for seven days.
Plant Pathology Analysis. Soil samples used for Panama Disease and nematode analyses were aseptically isolated in culture medium and incubated for seven days at room temperature. Organisms were identified as follows: 20 grams of composite soil sample was diluted with 40 mL distilled water (dH2O); 1 drop of Tween 20 detergent was added, and the sample mixed. A 1 mL aliquot was taken from the solution and diluted with 9 mL dH2O; three further serial dilutions were made. From each dilution, 100 µL were spread on solid Komada growth medium (Sun et al., Phytopathology 68: 1672-1673, 1978). Growth could be seen 7 days after inoculation.

[2] = 750 L/ha, six months after treatment
[3] = 1500 L/ha, six months after treatment
[4] = 2250 L/ha, six months after treatment
[5] = 3000 L/ha, six months after treatment

CNC(=S)[S-].[Na+] [metam sodium, sodium N-methyldithiocarbamate] was tested, and the “effect on average girth size of banana plant” value (Cavendish banana plants; 750 L/ha) was ~ 1 cm, the “increase in average height of banana plant” value (Cavendish banana plants; 750 L/ha) was ~ 5 cm and the “effect on plants reaching bagging stage” value (Cavendish banana plants; [2]) was “did not have a meaningful effect”. The “percent of plants at either shooting or bagging stage” value (Cavendish banana plants; [2]) was 11%, the “percent of plants at shooting stage” value (Cavendish banana plants; [2]) was 9% and the “increase in average girth size of banana plant” value (Cavendish banana plants; 1500-3000 L/ha) was 4-6 cm. The “increase in average height of banana plant” value (Cavendish banana plants; 1500-3000 L/ha) was 20-23 cm, the “percent of plants at either shooting or bagging stage” value (Cavendish banana plants; [3]) was 28% and the “percent of plants at shooting stage” value (Cavendish banana plants; [3]) was 10%. For the same compound, the “percent of plants at bagging stage” value (Cavendish banana plants; 1500 to 3000 L/ha, six months after treatment) was 11-19%, the “percent of plants at either shooting or bagging stage” value (Cavendish banana plants; [4]) was 27% and the “percent of plants at shooting stage” value (Cavendish banana plants; [4]) was 17%. The “percent of plants at either shooting or bagging stage” value (Cavendish banana plants; [5]) was 35%, the “percent of plants at shooting stage” value (Cavendish banana plants; [5]) was 22% and the “leaf increase (average number of leaves per banana plant)” value (Cavendish banana plants; regardless of dose applied) was “roughly 1.5 fold”. The “reducing the number of surviving chlamydospores, measured as growing colonies” value (Foc TR4 chlamydospores; 100X dilution, prolonged incubation (60 min vs 5 min)) was “more effective”, the “reduction in viability of Foc TR4 chlamydospores” value (Foc TR4 chlamydospores; First test, dilutions from 1000 up to 10 X 10^6-fold, 60 min) was “No significant reduction in viability” and the “efficacy on chlamydospores (colonies on PDA plates)” value (from here on “efficacy on chlamydospores”) (Foc TR4 chlamydospores; Second test, 10X and 100X dilutions) was “(partially) effective”. The “number of chlamydospores that survived” value (Foc TR4 chlamydospores; Second test, dilutions of 1000X and more) was “did not affect”, the “efficacy on chlamydospores” value (Foc TR4 chlamydospores; dilution of 10X, incubation time 5 minutes) was “effective” and the “efficacy on chlamydospores” value (Foc TR4 chlamydospores; dilution of 100X, both 5 and 60 minutes) was “less effective”. For the same compound, the “effectiveness against Foc TR4 chlamydospores” value (Foc TR4 chlamydospores; in vitro conditions, dependent on high concentrations) was “effective”, the “Panama Disease F. oxysporum f. sp. cubense” value ([1]; Day 1, 20 cm, T2 750 L/ha) was “-” and the “Panama Disease F. oxysporum f. sp. cubense” value ([1]; Day 1, 20 cm, T3 1500 L/ha) was “-”. The “Panama Disease F. oxysporum f. sp. cubense” value ([1]; Day 1, 20 cm, T4 2250 L/ha) was “-”, the “Panama Disease F. oxysporum f. sp. cubense” value ([1]; Day 1, 20 cm, T5 3000 L/ha) was “-” and the “Panama Disease F. oxysporum f. sp. cubense” value ([1]; Day 1, 40 cm, T2 750 L/ha) was “-”. The “Panama Disease F. oxysporum f. sp. cubense” value ([1]; Day 1, 40 cm, T3 1500 L/ha) was “-”, the “Panama Disease F. oxysporum f. sp. cubense” value ([1]; Day 1, 40 cm, T4 2250 L/ha) was “-” and the “Panama Disease F. oxysporum f. sp. cubense” value ([1]; Day 1, 40 cm, T5 3000 L/ha) was “-”. For the same compound, the “Panama Disease F. oxysporum f. sp. cubense” value ([1]; Day 1, 60 cm, T2 750 L/ha) was “-”, the “Panama Disease F. oxysporum f. sp. cubense” value ([1]; Day 1, 60 cm, T3 1500 L/ha) was “-” and the “Panama Disease F. oxysporum f. sp. cubense” value ([1]; Day 1, 60 cm, T4 2250 L/ha) was “-”. For the same compound, the “Panama Disease F. oxysporum f. sp. cubense” value ([1]; Day 1, 60 cm, T5 3000 L/ha) was “-”, the “Panama Disease F. oxysporum f. sp. cubense” value ([1]; Day 2, 20 cm, T2 750 L/ha) was “-” and the “Panama Disease F. oxysporum f. sp. cubense” value ([1]; Day 2, 20 cm, T3 1500 L/ha) was “-”. For the same compound, the “Panama Disease F. oxysporum f. sp. cubense” value ([1]; Day 2, 20 cm, T4 2250 L/ha) was “-”, the “Panama Disease F. oxysporum f. sp. cubense” value ([1]; Day 2, 20 cm, T5 3000 L/ha) was “-” and the “Panama Disease F. oxysporum f. sp. cubense” value ([1]; Day 2, 40 cm, T2 750 L/ha) was “-”. The “Panama Disease F. oxysporum f. sp. cubense” value ([1]; Day 2, 40 cm, T3 1500 L/ha) was “-”, the “Panama Disease F. oxysporum f. sp. cubense” value ([1]; Day 2, 40 cm, T4 2250 L/ha) was “-” and the “Panama Disease F. oxysporum f. sp. cubense” value ([1]; Day 2, 40 cm, T5 3000 L/ha) was “-”. For the same compound, the “Panama Disease F. oxysporum f. sp. cubense” value ([1]; Day 2, 60 cm, T2 750 L/ha) was “-”, the “Panama Disease F. oxysporum f. sp. cubense” value ([1]; Day 2, 60 cm, T3 1500 L/ha) was “-” and the “Panama Disease F. oxysporum f. sp. cubense” value ([1]; Day 2, 60 cm, T4 2250 L/ha) was “-”. For the same compound, the “Panama Disease F. oxysporum f. sp. cubense” value ([1]; Day 2, 60 cm, T5 3000 L/ha) was “-”, the “Panama Disease F. oxysporum f. sp. cubense” value ([1]; Day 3, 20 cm, T2 750 L/ha) was “-” and the “Panama Disease F. oxysporum f. sp. cubense” value ([1]; Day 3, 20 cm, T3 1500 L/ha) was “-”. The “Panama Disease F. oxysporum f. sp. cubense” value ([1]; Day 3, 20 cm, T4 2250 L/ha) was “-”, the “Panama Disease F. oxysporum f. sp. cubense” value ([1]; Day 3, 20 cm, T5 3000 L/ha) was “-” and the “Panama Disease F. oxysporum f. sp. cubense” value ([1]; Day 3, 40 cm, T2 750 L/ha) was “-”. For the same compound, the “Panama Disease F. oxysporum f. sp. cubense” value ([1]; Day 3, 40 cm, T3 1500 L/ha) was “-” and the “Panama Disease F. oxysporum f. sp. cubense” value ([1]; Day 3, 40 cm, T4 2250 L/ha) was “-”.
